EP2727944A1, “Depletion of CCR2-positive monocytes for the treatment of inflammatory conditions in the gastrointestinal system” (Universitätsklinikum Regensburg, priority 2012, dated 2014)

Test system: CX3CR1/GFP^intLy6C^hi effector monocytes
Assay: IL-6 ELISA of sorted colonic cells cultured with TLR/NOD2 ligands
Type: cell-based, mice
Settings: cells sorted at DSS day 7, cultured 16 hr; Pam3CSK4 10 µg/ml, LPS 100 ng/ml
From the text: To probe whether the pro-inflammatory signature of the effector monocytes could have been a result of TLR and NOD-2 engagement, the cells were isolated from colitic mice and exposed to the respective ligands.

For Pam3CSK4, the IL-6 secretion was “substantial IL-6 secretion”.
